Assay results: US10670605B2, “Cysteine reactive probes and uses thereof” (The Scripps Research Institute, priority 2015, dated 2020)
Each block holds one molecule with its values, some of them ahead of it.

Tests used:
RELB C109 (Q01201) = target: T1, RELB C109 (Q01201) (Homo sapiens, UniProt Q01201); experiment: Competitive isoTOP-ABPP, cell lysates; assay type: binding; conditions: for R value (DMSO/fragment): 500 μM
T1 sequence (Q01201 1-579): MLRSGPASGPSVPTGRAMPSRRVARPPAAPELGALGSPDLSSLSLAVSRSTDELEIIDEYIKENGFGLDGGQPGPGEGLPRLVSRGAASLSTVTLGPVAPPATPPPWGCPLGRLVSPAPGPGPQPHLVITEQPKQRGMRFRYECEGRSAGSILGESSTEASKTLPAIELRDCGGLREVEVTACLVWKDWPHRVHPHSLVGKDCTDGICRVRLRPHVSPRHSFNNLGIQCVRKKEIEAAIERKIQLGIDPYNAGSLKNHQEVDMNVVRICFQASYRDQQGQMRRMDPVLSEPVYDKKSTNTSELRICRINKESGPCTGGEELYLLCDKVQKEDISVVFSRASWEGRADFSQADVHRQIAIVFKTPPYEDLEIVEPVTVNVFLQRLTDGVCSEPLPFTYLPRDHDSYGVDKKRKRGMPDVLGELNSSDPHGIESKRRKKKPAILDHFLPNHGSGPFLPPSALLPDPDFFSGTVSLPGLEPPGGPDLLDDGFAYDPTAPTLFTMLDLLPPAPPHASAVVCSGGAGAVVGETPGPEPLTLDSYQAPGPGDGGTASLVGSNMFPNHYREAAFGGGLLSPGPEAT

NCF1 C378 (P14598) = target: T2, NCF1 C378 (P14598) (Homo sapiens, UniProt P14598); experiment: Competitive isoTOP-ABPP, cell lysates; assay type: binding
T2 sequence (P14598 1-390): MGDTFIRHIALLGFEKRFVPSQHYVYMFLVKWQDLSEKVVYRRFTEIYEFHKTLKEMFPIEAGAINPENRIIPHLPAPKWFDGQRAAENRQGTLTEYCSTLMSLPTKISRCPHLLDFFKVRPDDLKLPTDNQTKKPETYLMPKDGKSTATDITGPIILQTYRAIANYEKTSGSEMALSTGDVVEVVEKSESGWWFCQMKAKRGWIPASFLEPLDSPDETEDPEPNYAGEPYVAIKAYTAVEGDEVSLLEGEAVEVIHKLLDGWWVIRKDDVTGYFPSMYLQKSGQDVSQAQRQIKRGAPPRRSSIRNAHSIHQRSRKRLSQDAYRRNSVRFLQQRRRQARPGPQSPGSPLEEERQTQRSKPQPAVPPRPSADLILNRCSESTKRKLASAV

Compound: COc1ccc2c(c1)CCCN2C(=O)CCl [compound 2]
R value (DMSO/fragment) (RELB C109 (Q01201); in vitro, MDA-MB-231): 20.0
R value (DMSO/fragment) (RELB C109 (Q01201); invitro, ramos): 20.0
R value (DMSO/fragment) (NCF1 C378 (P14598); 500 μM, invitro, ramos): 4.4

Compound: C=CC(=O)N(c1ccccc1)c1ccc(Br)cc1 [compound 5]
isoTOP-ABPP ratio, P14598_C378 (NCF1 C378 (P14598); 500 μM, invitro, ramos): 4.0

Compound: O=C(CCl)N1CCN(S(=O)(=O)c2ccccc2F)CC1 [compound 10]
isoTOP-ABPP ratio, P14598_C378 (NCF1 C378 (P14598); 500 μM, invitro, ramos): 1.1

Compound: N#C/C(=C\c1cc(C(F)(F)F)cc(C(F)(F)F)c1)C(N)=O [compound 23]
isoTOP-ABPP ratio (reactivity profile), Q01201_C109 (RELB C109 (Q01201); 500 μm in-vitro ramos): 1.3

Compound: CC(Br)C(=O)Nc1cc(C(F)(F)F)cc(C(F)(F)F)c1 (stereo not drawn) [compound 24]
isoTOP-ABPP ratio (reactivity profile), Q01201_C109 (RELB C109 (Q01201); 500 μm in-vitro ramos): 1.5

Compound: CC(C)CCOCCNC(=O)CCl [compound 27]
isoTOP-ABPP ratio (reactivity profile), Q01201_C109 (RELB C109 (Q01201); 500 μm in-vitro ramos_231): 0.8

The next lines start with the values.

R value (DMSO/fragment) (NCF1 C378 (P14598); 500 μM, invitro, ramos): 2.1
Compound: O=C(CCl)Nc1cc(C(F)(F)F)cc(C(F)(F)F)c1 [compound 3]

R value (DMSO/fragment) (NCF1 C378 (P14598); 250 μM, in vitro, Ramos): 1.4
Compound: COc1ccc(C2CC(c3cccs3)=NN2C(=O)CCl)cc1 (stereo not drawn) [compound 4]

isoTOP-ABPP ratio, P14598_C378 (NCF1 C378 (P14598); 500 μM, invitro, ramos): 0.7
Compound: O=C(CCl)NCCc1c[nH]c2ccccc12 [compound 13]

isoTOP-ABPP ratio (reactivity profile), Q01201_C109 (RELB C109 (Q01201); 500 μm in-vitro ramos): 1.1
Compound: COc1ccccc1OCCNC(=O)CCl [compound 28]

isoTOP-ABPP reactivity ratio, Q01201_C109 (RELB C109 (Q01201); 500 μm, in-vitro_ramos): 20.0
Compound: CC(C)(C)c1cc(NC(=O)CCl)on1 [compound 32]

isoTOP-ABPP reactivity profile ratio, P14598_C378 (NCF1 C378 (P14598); 500 μm, in-vitro_ramos): 1.2
Compound: COc1cc(NC(=O)CCl)cc(OC)c1 [compound 43]

isoTOP-ABPP reactivity profile ratio, Q01201_C109 (RELB C109 (Q01201); 500 μm, in-vitro_ramos): 1.6
Compound: O=C(CCl)Nc1cccc2ncccc12 [compound 51]
